Tested on: Cell Line A549 (human lung cancer epithelial cells)
Assay: Cell cycle characterization of Taxol-treated A549 cells by image analysis of DAPI-stained DNA
Format: cell-based
Description: FIGS. 14A-14G depict the results of an experiment in which human lung cancer epithelial cells were treated with Taxol and the effect of Taxol on the cell cycle was characterized. The specific cells used in this study were from Cell Line A549 (human lung cancer epithelial cells) (ATCC:CCL-185). Two day staged cell cultures of the A549 cells were trypsinized for five minutes from T175 cm flasks. The cells were then suspended in ten milliliters of RPMI media with ten percent serum and counted using both a hemocytometer and Coulter Counter. The suspension was diluted further in media to ensure that there were 1600 cells per twenty microliters in suspension. The cells were then counted again. Thereafter, they were transferred to a Cell Stir and kept in suspension while being plated into barcoded 384 well plates using a MultiDrop at twenty microliters per well. The plates were transferred to a humidified carbon dioxide incubator to recover for twenty-four hours before the addition of Taxol or DMSO. Prior to imaging the cells were treated with DAPI to stain DNA. Cells from each well were then imaged.
Of relevance to this example, eight wells were treated with Taxol at varying concentrations and eight other “control” wells were treated with DMSO, which is not toxic to the cells under consideration. The concentration of Taxol varied from approximately 0.09 micromolar to 200 micromolar. […] Cells in each of the eight Taxol wells were separately imaged and the total measured intensity in each cell was recorded. As discussed above, the total intensity corresponds to the amount of DNA in each cell. In the histogram, the cell count has been normalized so that the area under each curve was equal to a value of one.
The data used to produce the histogram of FIG. 14B was taken from the same images of the eight Taxol containing wells used to produce the histogram of FIG. 14A. In this histogram, the mitotic discriminator is defined as log2(average intensity) minus log2(area).
The five phases are G1, S, G2, m (telophase), and M (prophase, metaphase, and anaphase). […]

## CC(=O)O[C@H]1C(=O)[C@@]2(C)[C@H]([C@H](OC(=O)c3ccccc3)[C@]3(O)C[C@H](OC(=O)[C@H](O)[C@@H](NC(=O)c4ccccc4)c4ccccc4)C(C)=C1C3(C)C)[C@]1(OC(C)=O)CO[C@@H]1C[C@@H]2O [Taxol]
Taxol approximately 0.09 micromolar to 200 micromolar, eight wells, DAPI stain, FIG. 14A
  distribution of cells based upon the amount of DNA contained in each cell (log2 total intensity histogram; G1 vs G2 peaks): arrests cells in the G2 phase
Taxol approximately 0.09 to 200 micromolar, FIG. 14B
  mitotic discriminator (log2(average intensity) minus log2(area)); relative incidence of mitotic vs interphase cells: greatly increase the relative incidence of mitotic cells
Taxol approximately 0.09 to 200 micromolar, FIG. 14C
  number of objects divided by the average number of DMSO objects ("o" curve; objects correspond to living cells): decreases with increasing concentration of Taxol

Source: patent US20040071328A1, “Classifying cells based on information contained in cell images” (priority 2003, published 2004)
